# Laboratory results reported in patent publication US20250171430A1, “PYRAZOLYL COMPOUNDS AS KV7 CHANNEL ACTIVATORS” (Biohaven Therapeutics Ltd., priority 2022, published 2025).
# Target: T1, Kv7.2/7.3 (Homo sapiens, UniProt O43525+O43526)
# T1 construct: Kv7.2 tetracycline-induced, Kv7.3 constitutive
# Experiment: Kv7.2/7.3 Activation Assay (Thallium Flux Assay)
# Assay type: cell-based
# Conditions: hKV7.2/7.3 cell line; test compound at single concentration of 10 μM; fluorescence at 90 sec normalized to positive control (retigabine, 30 μM)
# Summary of the method: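 Single-point activity at 10 μM (0.1% DMSO, HEPES-buffered saline, pH 7.4) was scored from fluorescence at 90 s relative to 30 μM retigabine. Categories were none <0.15, moderate 0.15-0.7 and high >0.7. Thallium influx after stimulus addition was followed with FluxOR II Green dye in hKv7.2/7.3 cells, Kv7.2 expressed under overnight tetracycline (10 ng/mL) induction.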
row,SMILES,Kv7.2/7.3 Activity
1,"Cn1nc(NC(=O)C2(C(F)(F)F)CCC2)c(C2CCC2)c1-c1ccc(F)cc1 [Compound 124, N-(4-cyclobutyl-5-(4-fluorophenyl)-1-methyl-1H-pyrazol-3-yl)-1-(trifluoromethyl)cyclobutane-1-carboxamide]",+ (“+” Moderate Activity 0.15-0.7)
2,"Cn1nc(NC(=O)C2CC(F)(F)C2)c(C2CCC2)c1-c1ccc(F)cc1 [Compound 125, N-(4-cyclobutyl-5-(4-fluorophenyl)-1-methyl-1H-pyrazol-3-yl)-3,3-difluorocyclobutane-1-carboxamide]",++ (“++” High Activity ≥ 0.7)
3,"Cn1nc(NC(=O)C2(C(F)(F)F)CC2)c(C2CCC2)c1-c1ccc(F)cc1 [Compound 126, N-(4-cyclobutyl-5-(4-fluorophenyl)-1-methyl-1H-pyrazol-3-yl)-1-(trifluoromethyl)cyclopropane-1-carboxamide]",++ (“++” High Activity ≥ 0.7)
4,"C[C@H](C(=O)Nc1nn(C)c(-c2ccc(F)cc2)c1C1CCC1)C1(C(F)(F)F)CC1 [Compound 127, (S)-N-(4-cyclobutyl-5-(4-fluorophenyl)-1-methyl-1H-pyrazol-3-yl)-2-(1-(trifluoromethyl)cyclopropyl)propanamide]",++ (“++” High Activity ≥ 0.7)
5,"C[C@@H](C(=O)Nc1nn(C)c(-c2ccc(F)cc2)c1C1CCC1)C1(C(F)(F)F)CC1 [Compound 128, (R)-N-(4-cyclobutyl-5-(4-fluorophenyl)-1-methyl-1H-pyrazol-3-yl)-2-(1-(trifluoromethyl)cyclopropyl)propanamide]",++ (“++” High Activity ≥ 0.7)
6,"C[C@H](C(=O)Nc1nn(C)c(-c2ccc(F)cc2)c1C1CCC1)C1CC(F)(F)C1 [Compound 129, (S)-N-(4-cyclobutyl-5-(4-fluorophenyl)-1-methyl-1H-pyrazol-3-yl)-2-(3,3-difluorocyclobutyl)propanamide]",++ (“++” High Activity ≥ 0.7)
7,"Cn1nc(NC(=O)C2(O)CC2)c(C2CCC2)c1-c1ccc(F)cc1 [Compound 130, N-(4-cyclobutyl-5-(4-fluorophenyl)-1-methyl-1H-pyrazol-3-yl)-1-hydroxycyclopropane-1-carboxamide]",− (“−” No Activity < 0.15)
8,"Cn1nc(NC(=O)C2(C(C)(F)F)CC2)c(C2CCC2)c1-c1ccc(F)cc1 [Compound 131, N-(4-cyclobutyl-5-(4-fluorophenyl)-1-methyl-1H-pyrazol-3-yl)-1-(1,1-difluoroethyl)cyclopropane-1-carboxamide]",++ (“++” High Activity ≥ 0.7)
9,"C[C@@H](C(=O)Nc1nn(C)c(-c2ccc(F)cc2)c1C1CCC1)C1CC(F)(F)C1 [Compound 132, (R)-N-(4-cyclobutyl-5-(4-fluorophenyl)-1-methyl-1H-pyrazol-3-yl)-2-(3,3-difluorocyclobutyl)propanamide]",+ (“+” Moderate Activity 0.15-0.7)
10,"Cn1nc(NC(=O)[C@H]2CC2(F)F)c(C2CCC2)c1-c1ccc(F)cc1 [Compound 133, (R)-N-(4-cyclobutyl-5-(4-fluorophenyl)-1-methyl-1H-pyrazol-3-yl)-2,2-difluorocyclopropane-1-carboxamide]",++ (“++” High Activity ≥ 0.7)
11,"Cn1nc(NC(=O)[C@@H]2CC2(F)F)c(C2CCC2)c1-c1ccc(F)cc1 [Compound 134, (S)-N-(4-cyclobutyl-5-(4-fluorophenyl)-1-methyl-1H-pyrazol-3-yl)-2,2-difluorocyclopropane-1-carboxamide]",− (“−” No Activity < 0.15)
12,"CC(C)C1(C(=O)Nc2nn(C)c(-c3ccc(F)cc3)c2C2CCC2)CC1 [Compound 136, N-(4-cyclobutyl-5-(4-fluorophenyl)-1-methyl-1H-pyrazol-3-yl)-1-isopropylcyclopropane-1-carboxamide]",++ (“++” High Activity ≥ 0.7)
13,"Cn1nc(NC(=O)C2(C3CC3)CC2)c(C2CCC2)c1-c1ccc(F)cc1 [Compound 137, N-(4-cyclobutyl-5-(4-fluorophenyl)-1-methyl-1H-pyrazol-3-yl)-[1,1'-bi(cyclopropane)]-1-carboxamide]",++ (“++” High Activity ≥ 0.7)
14,"CC(C)CC1(C(=O)Nc2nn(C)c(-c3ccc(F)cc3)c2C2CCC2)CC1 [Compound 138, N-(4-cyclobutyl-5-(4-fluorophenyl)-1-methyl-1H-pyrazol-3-yl)-1-isobutylcyclopropane-1-carboxamide]",++ (“++” High Activity ≥ 0.7)
15,"Cn1nc(NC(=O)[C@H]2CC2(F)F)c(C2(C)CCC2)c1-c1ccc(F)cc1 [Compound 139, (R)-2,2-difluoro-N-(5-(4-fluorophenyl)-1-methyl-4-(1-methylcyclobutyl)-1H-pyrazol-3-yl)cyclopropane-1-carboxamide]",++ (“++” High Activity ≥ 0.7)
16,"Cn1nc(NC(=O)[C@@H]2CC2(F)F)c(C2(C)CCC2)c1-c1ccc(F)cc1 [Compound 140, (S)-2,2-difluoro-N-(5-(4-fluorophenyl)-1-methyl-4-(1-methylcyclobutyl)-1H-pyrazol-3-yl)cyclopropane-1-carboxamide]",+ (“+” Moderate Activity 0.15-0.7)

# Now from value to molecule:
row,Kv7.2/7.3 Activity,SMILES
1,− (“−” No Activity < 0.15),"CC(F)(F)C1(C(=O)Nc2nn(CC(F)(F)F)c(-c3ccc(F)cc3)c2C2CCC2)CC1 [Compound 141, N-(4-cyclobutyl-5-(4-fluorophenyl)-1-(2,2,2-trifluoroethyl)-1H-pyrazol-3-yl)-1-(1,1-difluoroethyl)cyclopropane-1-carboxamide]"
2,− (“−” No Activity < 0.15),"C[C@H](C(=O)Nc1nn(CC(F)(F)F)c(-c2ccc(F)cc2)c1C1CCC1)C1(C(F)(F)F)CC1 [Compound 142, (S)-N-(4-cyclobutyl-5-(4-fluorophenyl)-1-(2,2,2-trifluoroethyl)-1H-pyrazol-3-yl)-2-(1-(trifluoromethyl)cyclopropyl)propanamide]"
3,− (“−” No Activity < 0.15),"C[C@@H](C(=O)Nc1nn(CC(F)(F)F)c(-c2ccc(F)cc2)c1C1CCC1)C1(C(F)(F)F)CC1 [Compound 143, (R)-N-(4-cyclobutyl-5-(4-fluorophenyl)-1-(2,2,2-trifluoroethyl)-1H-pyrazol-3-yl)-2-(1-(trifluoromethyl)cyclopropyl)propanamide]"
4,++ (“++” High Activity ≥ 0.7),"Cn1nc(NC(=O)[C@H]2C[C@]2(C)C(F)(F)F)c(C2CCC2)c1-c1ccc(F)cc1 [Compound 144, (1S,2S)-N-(4-cyclobutyl-5-(4-fluorophenyl)-1-methyl-1H-pyrazol-3-yl)-2-methyl-2-(trifluoromethyl)cyclopropane-1-carboxamide]"
5,+ (“+” Moderate Activity 0.15-0.7),"Cn1nc(NC(=O)C2(C)CC2)c(C2CCC2)c1-c1ccc(F)cc1 [Compound 146, N-(4-cyclobutyl-5-(4-fluorophenyl)-1-methyl-1H-pyrazol-3-yl)-1-methylcyclopropane-1-carboxamide]"
6,++ (“++” High Activity ≥ 0.7),"Cn1nc(NC(=O)[C@@H]2CC2(F)F)c(C2CCC2)c1C1CC(C)(C)C1 [Compound 147, (S)-N-(4-cyclobutyl-5-(3,3-dimethylcyclobutyl)-1-methyl-1H-pyrazol-3-yl)-2,2-difluorocyclopropane-1-carboxamide]"
7,++ (“++” High Activity ≥ 0.7),"Cn1nc(NC(=O)[C@H]2CC2(F)F)c(C2CCC2)c1C1CC(C)(C)C1 [Compound 148, (R)-N-(4-cyclobutyl-5-(3,3-dimethylcyclobutyl)-1-methyl-1H-pyrazol-3-yl)-2,2-difluorocyclopropane-1-carboxamide]"
8,− (“−” No Activity < 0.15),"Cc1nc(C)c(-c2c(C3CCC3)c(NC(=O)C3(C(F)(F)F)CC3)nn2C)s1 [Compound 149, N-(4-cyclobutyl-5-(2,4-dimethylthiazol-5-yl)-1-methyl-1H-pyrazol-3-yl)-1-(trifluoromethyl)cyclopropane-1-carboxamide]"
9,+ (“+” Moderate Activity 0.15-0.7),"Cn1nc(NC(=O)C2(C(F)(F)F)CC2)c(C2CCC2)c1-c1ccc(OC(F)(F)F)cc1 [Compound 150, N-(4-cyclobutyl-1-methyl-5-(4-(trifluoromethoxy)phenyl)-1H-pyrazol-3-yl)-1-(trifluoromethyl)cyclopropane-1-carboxamide]"
10,++ (“++” High Activity ≥ 0.7),"Cn1nc(NC(=O)C2(C(F)(F)F)CC2)c(C2CCC2)c1C1CC(C)(C)C1 [Compound 151, N-(4-cyclobutyl-5-(3,3-dimethylcyclobutyl)-1-methyl-1H-pyrazol-3-yl)-1-(trifluoromethyl)cyclopropane-1-carboxamide]"
11,++ (“++” High Activity ≥ 0.7),"Cn1nc(NC(=O)C2(C)CC2)c(C2CCC2)c1-c1ccc(Cl)s1 [Compound 152, N-(5-(5-chlorothiophen-2-yl)-4-cyclobutyl-1-methyl-1H-pyrazol-3-yl)-1-methylcyclopropane-1-carboxamide]"
12,++ (“++” High Activity ≥ 0.7),"Cn1nc(NC(=O)C2(C(F)(F)F)CC2)c(C2CCC2)c1-c1ccc(Cl)s1 [Compound 153, N-(5-(5-chlorothiophen-2-yl)-4-cyclobutyl-1-methyl-1H-pyrazol-3-yl)-1-(trifluoromethyl)cyclopropane-1-carboxamide]"
13,+ (“+” Moderate Activity 0.15-0.7),"Cn1nc(NC(=O)[C@H]2CC2(F)F)c(C2CCC2)c1-c1ccc(Cl)s1 [Compound 154, (R)-N-(5-(5-chlorothiophen-2-yl)-4-cyclobutyl-1-methyl-1H-pyrazol-3-yl)-2,2-difluorocyclopropane-1-carboxamide]"
14,++ (“++” High Activity ≥ 0.7),"Cn1nc(NC(=O)[C@@H]2CC2(F)F)c(C2CCC2)c1-c1ccc(Cl)s1 [Compound 155, (S)-N-(5-(5-chlorothiophen-2-yl)-4-cyclobutyl-1-methyl-1H-pyrazol-3-yl)-2,2-difluorocyclopropane-1-carboxamide]"
